Experimental data: patent EP0341661A2, “Peptide-drug compositions containing alpha-aminoboronic acid derivatives” (THE DU PONT MERCK PHARMACEUTICAL COMPANY, priority 1988, dated 1989)
Where a name gives a salt, the structure may show the parent alone.

Tested on: aminopeptidases
Assay: In situ nasal perfusion: degradation of 100 µM leucine enkephalin in the nasal perfusate
Assay type: in vivo, Sprague-Dawley rats
Details: for % Leucine Enkephalin Remaining: 0.1 µM inhibitor
Description: In order to evaluate the effectiveness of the α-aminoboronic acid derivative inhibitors of this invention, an animal model was used (according to A. Hussain, J. Furaj, A. Yukihiko and J. E. Truelove, Biochem. Biophys. Res. Com. 133, 923, 1985) to assess the degradation of proteins and peptides in situ and in vivo in situ in the nasal cavity of rats. The method involved the use of Sprague-Dawley rats weighing approximately 300 grams. Each rat was anesthetized with sodium pentobarbitol (50 mg/kg). An incision was made in the neck and the trachea was canulated with PE 240 tubing. For the in situ studies, a second tube, which served to introduce the perfusing solution, was inserted through the esophagus to the posterior part of the nasal cavity. The nasopalatine was closed with an adhesive to prevent drainage of the perfusing solution from the nasal to the oral cavity. For the in vivo in situ studies, the esophagus was canulated using PE 240 tubing closed at one end. The closed end was pushed to the posterior end of the nasal passage and then tied in place. The nasopalatine was closed with an adhesive to prevent drainage of the perfusing solution from the nasal to the oral cavity. The rats were dosed in one nostril with 50 µl of peptide solution in two forms; the control solution had no inhibitor added, the test solution had inhibitor added at concentrations specified in the examples shown below. The dosing solution was 0.1 M phosphate buffer (pH 7.4). At certain time intervals (one rat/time interval), the drug was washed from the nose via the other nostril with 10 ml of 0.1 M phosphate buffer (pH 3.8) using a peristaltic pump. The nasal washing was then placed in a 10 ml volumetric flask and adjusted to 10 ml with the same buffer and analyzed for the peptide by HPLC. The analysis of leucine enkephalin and its major metabolite involved taking aliquots of samples, diluting them with 200 µl of 0.1 M citric acid (pH 2.3) to quench hydrolysis and subjecting the samples to analysis (for in vivo in situ studies, the washings were injected as they were obtained). High Pressure Liquid Chromatography (HPLC) was run on a 4.6 x 250 mm C₈ column. The mobile phase consisted of 0.1 M NaH₂PO₄-H₃PO₄-acetonitrile (916 : 5 : 275) and was delivered at a flow rate of 1.7 ml/min. Detection was by UV at 210 nm. Retention times for leucine enkephalin and its major degradation product, Des-Tyr-leucine enkephalin were 7.3 and 4.8 min., respectively. Data were calculated as % of leucine enkephalin remaining in the nasal perfusate as a function of time, counting the concentration at zero time as 100%. In this example, a 10 ml solution of 0.1 M phosphate buffer solution (pH 7.4) containing 100 µM leucine enkephalin (the peptide) in the absence or presence of 0.1 µM 3-methyl-1(4,4,5,5-tetramethyl-1,3,2-dioxaborolane-2-yl)-1-butamine, trifluoroacetic acid salt (boroleucine) as the inhibitor was perfused nasally in rats as described above. A 10 ml portion of the peptide solution was placed in a water-jacketed container, maintained at 37°C and circulated through the nasal cavity of rats using a peristaltic pump. The perfusing solution was passed through the nasal cavity, out the nostrils, through a funnel, and returned to the water-jacketed container. The perfusate was analyzed by the ANALYTICAL METHOD described above.

In the case of CC(C)CC(N)B1OC(C)(C)C(C)(C)O1 (centres unmarked) [boroleucine, 3-methyl-1(4,4,5,5-tetramethyl-1,3,2-dioxaborolane-2-yl)-1-butamine, trifluoroacetic acid salt], the “% of leucine enkephalin remaining in the nasal perfusate” value (shortened to “% of leucine enkephalin remaining”) (0.01 µM Boroleucine (title: 0.1 µM), 0 min) is reported as 100.0±0.0%, the “% of leucine enkephalin remaining” value (0.01 µM Boroleucine (title: 0.1 µM), 5 min) is reported as 96.6±1.5% and the “% of leucine enkephalin remaining” value (0.01 µM Boroleucine (title: 0.1 µM), 10 min) is reported as 93.5±3.0%. The “% of leucine enkephalin remaining” value (0.01 µM Boroleucine (title: 0.1 µM), 20 min) was 96.4±1.7%, the “% of leucine enkephalin remaining” value (0.01 µM Boroleucine (title: 0.1 µM), 30 min) was 92.7±3.3% and the “% of leucine enkephalin remaining” value (0.01 µM Boroleucine (title: 0.1 µM), 45 min) was 91.8±2.5%. The “% of leucine enkephalin remaining” value (0.01 µM Boroleucine (title: 0.1 µM), 90 min) was 85.7±3.5%, the “% of leucine enkephalin remaining” value (0.01 µM inhibitor, 0 min) was 100.0±0.0% and the “% of leucine enkephalin remaining” value (0.01 µM inhibitor, 10 min) was 90.6±3.5%. The “% of leucine enkephalin remaining” value (0.01 µM inhibitor, 20 min) was 89.1±5.3%, the “% of leucine enkephalin remaining” value (0.01 µM inhibitor, 30 min) was 79.1±2.9% and the “% of leucine enkephalin remaining” value (0.01 µM inhibitor, 45 min) was 74.9±2.8%. The “% of leucine enkephalin remaining” value (0.01 µM inhibitor, 60 min) was 69.2±2.0%, the “% of leucine enkephalin remaining” value (0.01 µM inhibitor, 90 min) was 56.2±1.6% and the “% of leucine enkephalin remaining” value (0.03 µM inhibitor, 0 min) was 100.0±0.0%. For the same compound, the “% of leucine enkephalin remaining” value (0.03 µM inhibitor, 5 min) was 94.1±1.7%, the “% of leucine enkephalin remaining” value (0.03 µM inhibitor, 10 min) was 93.6±1.6% and the “% of leucine enkephalin remaining” value (0.03 µM inhibitor, 20 min) was 91.8±2.2%. The “% of leucine enkephalin remaining” value (0.03 µM inhibitor, 30 min) was 88.3±1.4%, the “% of leucine enkephalin remaining” value (0.03 µM inhibitor, 45 min) was 85.7±1.3% and the “% of leucine enkephalin remaining” value (0.03 µM inhibitor, 60 min) was 81.5±1.4%. For the same compound, the “% of leucine enkephalin remaining” value (0.03 µM inhibitor, 90 min) was 72.9±1.0%, the “order of inhibition of degradation” value (0.1 µM boroleucine, 10 µM bestatin, 100 µM puromycin) was “boroleucine> bestatin> puromycin” and the “% Leucine Enkephalin Remaining” value (0 min) was 100.0±0.0%. For the same compound, the “% Leucine Enkephalin Remaining” value (5 min) was 96.6±1.5%, the “% Leucine Enkephalin Remaining” value (10 min) was 93.5±3.0% and the “% Leucine Enkephalin Remaining” value (20 min) was 96.4±1.7%. For the same compound, the “% Leucine Enkephalin Remaining” value (30 min) was 92.7±3.3%, the “% Leucine Enkephalin Remaining” value (45 min) was 91.8±2.5% and the “% Leucine Enkephalin Remaining” value (60 min) was 88.8±2.6%. For the same compound, the “% Leucine Enkephalin Remaining” value (90 min) was 85.6±3.5% and the “comparison of the inhibitory effect of equimolar concentrations” value (0.1 µM of each inhibitor) was “superior to boroalanine”.
